In the NIST ThermoML archive (doi:10.1016/j.jct.2015.02.023):
± gives the expanded uncertainty stated by the source.

Assay: activity coefficient (dimensionless); of the first substance listed, at infinite dilution; xn = mol fraction of the nth substance listed
Conditions: 333.15 K; 101.33 kPa; Liquid; Chromatography; x1 = 0

Compound	activity coefficient
CCC(=O)CC [pentan-3-one] + CO[PH](=O)[O-].Cn1cc[n+](C)c1	10.1 ± 0.7
CCCCCCCCCCCC [dodecane] + CCn1cc[n+](C)c1.CO[PH](=O)[O-]	1540 ± 110
C#CCCCC [1-hexyne] + CCn1cc[n+](C)c1.CO[PH](=O)[O-]	6.73 ± 0.46
c1ccsc1 [thiophene] + CO[PH](=O)[O-].Cn1cc[n+](C)c1	2.58 ± 0.18
CC#N [acetonitrile] + CCn1cc[n+](C)c1.CO[PH](=O)[O-]	1.11 ± 0.07
CC(C)O [propan-2-ol] + CCn1cc[n+](C)c1.CO[PH](=O)[O-]	0.261 ± 0.03
ClCCl [dichloromethane] + CO[PH](=O)[O-].Cn1cc[n+](C)c1	0.72 ± 0.05
CCCCCCCCCCCC [dodecane] + CO[PH](=O)[O-].Cn1cc[n+](C)c1	1790 ± 120
ClC(Cl)Cl [trichloromethane] + CCn1cc[n+](C)c1.CO[PH](=O)[O-]	0.358 ± 0.033
ClCCl [dichloromethane] + CCn1cc[n+](C)c1.CO[PH](=O)[O-]	0.642 ± 0.044
Cc1ccccc1 [toluene] + CCn1cc[n+](C)c1.CO[PH](=O)[O-]	6.63 ± 0.45
C#CCCCC [1-hexyne] + CO[PH](=O)[O-].Cn1cc[n+](C)c1	13.4 ± 0.91
CCCCCCCCC [nonane] + CCn1cc[n+](C)c1.CO[PH](=O)[O-]	485 ± 33

Same assay, conditions: 343.15 K; 101.33 kPa; Liquid; Chromatography; x1 = 0

Compound	activity coefficient
CO [methanol] + CO[PH](=O)[O-].Cn1cc[n+](C)c1	0.07 ± 0.03
ClC(Cl)Cl [trichloromethane] + CO[PH](=O)[O-].Cn1cc[n+](C)c1	0.51 ± 0.04
CCCCCCCCCCCCCC [tetradecane] + CO[PH](=O)[O-].Cn1cc[n+](C)c1	2890 ± 200
C1COCCO1 [1,4-dioxane] + CO[PH](=O)[O-].Cn1cc[n+](C)c1	3.66 ± 0.25
CCCO [propan-1-ol] + CO[PH](=O)[O-].Cn1cc[n+](C)c1	0.25 ± 0.03
Cc1ccc(C)cc1 [1,4-dimethylbenzene] + CO[PH](=O)[O-].Cn1cc[n+](C)c1	22 ± 1.5
CCC(C)=O [butanone] + CO[PH](=O)[O-].Cn1cc[n+](C)c1	4.17 ± 0.28
Cc1cccc(C)c1 [1,3-dimethylbenzene] + CO[PH](=O)[O-].Cn1cc[n+](C)c1	23.1 ± 1.6
CCC(=O)CC [pentan-3-one] + CO[PH](=O)[O-].Cn1cc[n+](C)c1	10 ± 0.7
c1ccsc1 [thiophene] + CO[PH](=O)[O-].Cn1cc[n+](C)c1	2.6 ± 0.18
ClCCl [dichloromethane] + CO[PH](=O)[O-].Cn1cc[n+](C)c1	0.77 ± 0.05
C#CCCCC [1-hexyne] + CO[PH](=O)[O-].Cn1cc[n+](C)c1	13.7 ± 0.93

Same assay, conditions: 353.15 K; 101.33 kPa; Liquid; Chromatography; x1 = 0

Compound	activity coefficient
CCC[N+](=O)[O-] [1-nitropropane] + CCn1cc[n+](C)c1.CO[PH](=O)[O-]	2.75 ± 0.19
C#CCCCCC [1-heptyne] + CCn1cc[n+](C)c1.CO[PH](=O)[O-]	11.8 ± 0.8
CCCCCCCCCCC [undecane] + CCn1cc[n+](C)c1.CO[PH](=O)[O-]	888 ± 61
CC(C)CO [2-methyl-1-propanol] + CCn1cc[n+](C)c1.CO[PH](=O)[O-]	0.292 ± 0.031
CCCCCCCCCCCCCC [tetradecane] + CCn1cc[n+](C)c1.CO[PH](=O)[O-]	2610 ± 180
C1COCCO1 [1,4-dioxane] + CCn1cc[n+](C)c1.CO[PH](=O)[O-]	3.87 ± 0.26
CCC(C)=O [butanone] + CCn1cc[n+](C)c1.CO[PH](=O)[O-]	2.56 ± 0.17
CCO [ethanol] + CCn1cc[n+](C)c1.CO[PH](=O)[O-]	0.156 ± 0.029
Cc1ccc(C)cc1 [1,4-dimethylbenzene] + CCn1cc[n+](C)c1.CO[PH](=O)[O-]	19.3 ± 1.3
CCc1ccccc1 [ethylbenzene] + CCn1cc[n+](C)c1.CO[PH](=O)[O-]	11.7 ± 0.8
c1ccsc1 [thiophene] + CCn1cc[n+](C)c1.CO[PH](=O)[O-]	2.5 ± 0.17
CCOCC [diethyl ether] + CCn1cc[n+](C)c1.CO[PH](=O)[O-]	3.5 ± 0.24
CCCCO [butan-1-ol] + CCn1cc[n+](C)c1.CO[PH](=O)[O-]	0.308 ± 0.031
C=O [methanal] + CCn1cc[n+](C)c1.CO[PH](=O)[O-]	0.115 ± 0.03
CCCCCCCCCCCC [dodecane] + CCn1cc[n+](C)c1.CO[PH](=O)[O-]	1300 ± 90
C#CCCCC [1-hexyne] + CCn1cc[n+](C)c1.CO[PH](=O)[O-]	7.14 ± 0.49
CC#N [acetonitrile] + CCn1cc[n+](C)c1.CO[PH](=O)[O-]	1.19 ± 0.08
CC(C)O [propan-2-ol] + CCn1cc[n+](C)c1.CO[PH](=O)[O-]	0.294 ± 0.031
ClC(Cl)Cl [trichloromethane] + CCn1cc[n+](C)c1.CO[PH](=O)[O-]	0.451 ± 0.036
ClCCl [dichloromethane] + CCn1cc[n+](C)c1.CO[PH](=O)[O-]	0.798 ± 0.052
Cc1ccccc1 [toluene] + CCn1cc[n+](C)c1.CO[PH](=O)[O-]	6.82 ± 0.46

Same assay, conditions: 373.15 K; 101.33 kPa; Liquid; Chromatography; x1 = 0

Compound	activity coefficient
CCC[N+](=O)[O-] [1-nitropropane] + CCn1cc[n+](C)c1.CO[PH](=O)[O-]	2.8 ± 0.19
C#CCCCCC [1-heptyne] + CCn1cc[n+](C)c1.CO[PH](=O)[O-]	12 ± 0.8
CC(C)CO [2-methyl-1-propanol] + CCn1cc[n+](C)c1.CO[PH](=O)[O-]	0.309 ± 0.031
CCCCCCCCCCCCCC [tetradecane] + CCn1cc[n+](C)c1.CO[PH](=O)[O-]	2270 ± 160
C1COCCO1 [1,4-dioxane] + CCn1cc[n+](C)c1.CO[PH](=O)[O-]	4.33 ± 0.29
CCC(C)=O [butanone] + CCn1cc[n+](C)c1.CO[PH](=O)[O-]	2.37 ± 0.16
CCO [ethanol] + CCn1cc[n+](C)c1.CO[PH](=O)[O-]	0.169 ± 0.029
Cc1ccc(C)cc1 [1,4-dimethylbenzene] + CCn1cc[n+](C)c1.CO[PH](=O)[O-]	21.9 ± 1.5
CCc1ccccc1 [ethylbenzene] + CCn1cc[n+](C)c1.CO[PH](=O)[O-]	11.9 ± 0.8
c1ccsc1 [thiophene] + CCn1cc[n+](C)c1.CO[PH](=O)[O-]	2.64 ± 0.18
CCOCC [diethyl ether] + CCn1cc[n+](C)c1.CO[PH](=O)[O-]	4.6 ± 0.31
CCCCO [butan-1-ol] + CCn1cc[n+](C)c1.CO[PH](=O)[O-]	0.324 ± 0.032
C=O [methanal] + CCn1cc[n+](C)c1.CO[PH](=O)[O-]	0.151 ± 0.029
CCCCCCCCCCCC [dodecane] + CCn1cc[n+](C)c1.CO[PH](=O)[O-]	915 ± 63
C#CCCCC [1-hexyne] + CCn1cc[n+](C)c1.CO[PH](=O)[O-]	7.56 ± 0.52
CC#N [acetonitrile] + CCn1cc[n+](C)c1.CO[PH](=O)[O-]	1.25 ± 0.08
CC(C)O [propan-2-ol] + CCn1cc[n+](C)c1.CO[PH](=O)[O-]	0.314 ± 0.031
ClC(Cl)Cl [trichloromethane] + CCn1cc[n+](C)c1.CO[PH](=O)[O-]	0.544 ± 0.04
Cc1ccccc1 [toluene] + CCn1cc[n+](C)c1.CO[PH](=O)[O-]	7.16 ± 0.49
